Parameters in all cases: key: 5: strong intensity; 4: medium intensity; 3: weak intensity; 2: very weak intensity; 1: no peak; N/A: not observed
Assay [1] concerns KgpF v 3.1. In words: Prenylation of artificial cyclic peptides with 10 μM KgpF v 3.1 (Example 11; Table 7). It counts as biochemical, Microcystis aeruginosa. The following applies: KgpF v 3.1 10 μM. As for the experimental part: Reaction of the artificial cyclic peptide shown in Table 7 was made under conditions similar to (Conditions 11) and (Conditions 12) except that v8s/v11.1 was used as FIT system, KgpF v 3.1 was used as a prenylation modification enzyme, and the concentration of the KgpF v 3.1 was set at 10 μM. Here, KgpF v 3.1 is an enzyme having a higher purification degree and more improved specific activity than KgpF used under (Conditions 12).

Assay [2] has as its system KgpF. As to the kind of experiment: Prenylation of artificial cyclic peptides containing VW or WG sequence with 60 μM KgpF (Examples 12 and 13; Tables 8, 9, 10). It counts as biochemical, Microcystis aeruginosa. To be noted: KgpF 60 μM, DMAPP 2 mM, 37° C., 18 hours. As for the experimental part: The artificial cyclic peptides shown in Table 8 and Table 9 were obtained by translation and synthesis in the artificial translation system (Conditions 15) developed by the present inventors. The peptides thus obtained were then reacted with 60 μM KgpF in the system shown in (Conditions 16) at 37° C. for 18 hours.
(Conditions 15) • FIT system: v8s/v11.1 • 19aa-Met: 0.5 mM • ClAc-D-Tyr-tRNA^fMetCUA: 90 μM • Reaction: 37° C., 60 min. • Scale: 2.5 μL scale
(Conditions 16) • Translated mixture amount: 2.5 μL (mixture obtained under (Conditions 15)) • KgpF: 60 μM • DMAPP: 2 mM • Reaction: 37° C., 18 hours
The artificial cyclic peptides shown in Table 10 were obtained by translation and synthesis in the artificial translation system (Conditions 17) developed by the present inventors. The peptides thus obtained were then reacted with 60 μM KgpF in the system shown in (Conditions 18) at 37° C. for 18 hours.
(Conditions 17) • FIT system: v8s/v11.1 • 19aa-Met: 0.5 mM • ClAc-D-Tyr-tRNA^fMetCUA: 90 μM • Reaction: 37° C., 60 min. • Scale: 2.5 μL scale
(Conditions 18) • Translated mixture amount: 2.5 μL (mixture obtained under (Conditions 17)) • KgpF: 60 μM • DMAPP: 2 mM • Reaction: 37° C., 18 hours

Assay [3] deals with OltF v 2.1. As to the kind of experiment: Modification test of thioether-closed artificial cyclic peptides with 9.13 μM OltF v 2.1 (Example 16; Tables 11 and 12). It counts as biochemical, Planktothrix. To be noted: OltF v 2.1 9.13 μM, DMAPP 2 mM, 37° C., 18 hours. As to the method: The artificial cyclic peptides shown in Table 11 and Table 12 were obtained by translation and synthesis in the artificial translation system (Conditions 23) developed by the present inventors. The peptides thus obtained were then reacted with 9.13 μM OltF in the system shown in (Conditions 24) at 37° C. for 18 hours. It is to be noted that OltF v 2.1 is an enzyme prepared from OltF used in (Conditions 22) while changing a purification manner.
(Conditions 23) • FIT system: v8s/v11.1 • 19aa-Met: 0.5 mM • ClAc-D or L-Tyr-tRNA^fMetCUA: 90 μM • Reaction: 37° C., 60 min. • Scale: 2.5 μL scale
(Conditions 24) • Translated mixture amount: 2.5 μL (mixture obtained under (Conditions 23)) • OltF v 2.1: 9.13 μM • DMAPP: 2 mM • Reaction: 37° C., 18 hours

Setting [4] is: Table 8, VW sequence, various ring sizes.
Where [5] appears, read: Table 9, VW sequence, various ring sizes.
The mark [6] stands for this setting: Table 10, W at various positions.

Positions of bridges follow the written chain, without caps; N, C: chain ends. Non-standard residues stand in square brackets, D forms with d. No end group written: not given here.

Chain of OltF v 2.1 (as listed by the source): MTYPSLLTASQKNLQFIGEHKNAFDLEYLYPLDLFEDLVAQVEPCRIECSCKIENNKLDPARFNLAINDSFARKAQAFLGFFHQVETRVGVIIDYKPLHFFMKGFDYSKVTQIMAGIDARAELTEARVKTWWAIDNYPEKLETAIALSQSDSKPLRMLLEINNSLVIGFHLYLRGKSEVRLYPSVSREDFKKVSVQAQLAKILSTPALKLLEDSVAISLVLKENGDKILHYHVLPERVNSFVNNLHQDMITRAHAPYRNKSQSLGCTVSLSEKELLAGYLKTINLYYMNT
Chain of KgpF (as listed by the source): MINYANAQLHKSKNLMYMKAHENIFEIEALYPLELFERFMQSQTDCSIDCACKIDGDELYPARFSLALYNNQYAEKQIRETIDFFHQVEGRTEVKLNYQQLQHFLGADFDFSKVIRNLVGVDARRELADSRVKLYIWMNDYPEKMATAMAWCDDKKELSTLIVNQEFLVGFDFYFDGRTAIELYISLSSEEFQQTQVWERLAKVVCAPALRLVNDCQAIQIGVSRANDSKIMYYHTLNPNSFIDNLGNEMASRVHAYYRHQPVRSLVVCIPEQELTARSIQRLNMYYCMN

With “YG296-aMD5 ({CH2CO}-[dY]WYYAWDQTYKAFPC; thioether N-15 (inferred))”, in assay [1], the “Peak intensity, The number of prenyl groups added 0” value is listed as 5; the “Peak intensity, The number of prenyl groups added 1” value was determined as 3; the “Peak intensity, The number of prenyl groups added 2” value worked out at 1.

In the case of “YG390 ({CH2CO}-[dY]RVWGYPC; thioether N-8)”, in assay [2] (setting [4]), the “Peak intensity, The number of prenyl groups added 0” value was determined as 1 and the “Peak intensity, The number of prenyl groups added 1” value came to 5.

Consider “YG297 ({CH2CO}-[dY]RQFNRRTHEVWNLDC; thioether N-16 (inferred))”, for which, in assay [3] (Table 11), the “Peak intensity, The number of prenyl groups added 0” value is 5 and the “Peak intensity, The number of prenyl groups added 1” value amounted to 4.

Regarding “YG386 ({CH2CO}-[dY]VWCYPRG; thioether N-4)”, in assay [2] (setting [4]), the “Peak intensity, The number of prenyl groups added 0” value is on record as 1 and the “Peak intensity, The number of prenyl groups added 1” value worked out at 5.

“YG295-aML5 ({CH2CO}-[dY]ISWNEFNSPNWRFITC; thioether N-17 (inferred))”: in assay [1], the “Peak intensity, The number of prenyl groups added 0” value is 1; the “Peak intensity, The number of prenyl groups added 1” value is reported as 5; the “Peak intensity, The number of prenyl groups added 2” value is recorded as 1.

On to “YG296 ({CH2CO}-[dY]WYYAWDQTYKAFPC; thioether N-15 (inferred))”, for which, in assay [3] (Table 11), the “Peak intensity, The number of prenyl groups added 0” value is recorded as 3; the “Peak intensity, The number of prenyl groups added 1” value is on record as 2; the “Peak intensity, The number of prenyl groups added 2” value is recorded as 1.

With “YG291-PaktiL2 ({CH2CO}-[dY]WILITWPLVRRKC; thioether N-14 (inferred))”, in assay [1], the “Peak intensity, The number of prenyl groups added 0” value turned out to be 4 and the “Peak intensity, The number of prenyl groups added 1” value is on record as 4.

For the substance “YG293 ({CH2CO}-[dY]TFRDVWIFYGSLLSRC; thioether N-17 (inferred))”, in assay [3] (Table 11), the “Peak intensity, The number of prenyl groups added 0” value is on record as 3 and the “Peak intensity, The number of prenyl groups added 1” value came out at 4.

For “YG288 ({CH2CO}-[dY]SNFRIWRYSNSSC; thioether N-14 (inferred))”, in assay [3] (Table 11), the “Peak intensity, The number of prenyl groups added 0” value was 1 and the “Peak intensity, The number of prenyl groups added 1” value is on record as 5.

For “DNT070 ({CH2CO}-[dY]ISWNEFNSYFWLPITC; thioether N-17 (inferred); not fully specified)”, in assay [3] (Table 12), the “Peak intensity, The number of prenyl groups added 0” value turned out to be 1; the “Peak intensity, The number of prenyl groups added 1” value was found to be 5; the “Peak intensity, The number of prenyl groups added 2” value stood at 1.

As for “YG395 ({CH2CO}-[dY]HDYRVWGYHTPC; thioether N-13 (inferred))”, in assay [2] (setting [5]), the “Peak intensity, The number of prenyl groups added 0” value came to 1 and the “Peak intensity, The number of prenyl groups added 1” value is reported as 5.

In the case of “YG411 ({CH2CO}-[dY]HDYRYHTYPVWGC; thioether N-14 (inferred))”, in assay [2] (setting [6]), the “Peak intensity, The number of prenyl groups added 0” value was 1 and the “Peak intensity, The number of prenyl groups added 1” value came out at 5.

“DNT062 (Ac-[dY]NNRERGSDGGWGGPC; thioether (positions not given here); not fully specified (bridges))”: in assay [3] (Table 12), the “Peak intensity, The number of prenyl groups added 0” value came out at 3 and the “Peak intensity, The number of prenyl groups added 1” value is 5.

For “DNT057 (Ac-[dY]RQFNRRTHYFWLPDC; thioether (positions not given here); not fully specified (bridges))”, in assay [3] (Table 12), the “Peak intensity, The number of prenyl groups added 0” value came out at 1 and the “Peak intensity, The number of prenyl groups added 1” value was 5.

Regarding “YG402 ({CH2CO}-[dY]WGHDYRVYHTYPC; thioether N-14 (inferred))”, in assay [2] (setting [6]), the “Peak intensity, The number of prenyl groups added 0” value came out at 5 and the “Peak intensity, The number of prenyl groups added 1” value is 1.

In the case of “YG292 ({CH2CO}-[dY]IRRPWVPIIYLGC; thioether N-14 (inferred))”, in assay [3] (Table 11), the “Peak intensity, The number of prenyl groups added 0” value is on record as 2 and the “Peak intensity, The number of prenyl groups added 1” value was found to be 5.

Take “YG295 ({CH2CO}-[dY]ISWNEFNSPNWRFITC; thioether N-17 (inferred); not fully specified)”: in assay [3] (Table 11), the “Peak intensity, The number of prenyl groups added 0” value is 4; the “Peak intensity, The number of prenyl groups added 1” value is on record as 3; the “Peak intensity, The number of prenyl groups added 2” value stood at 1.

Consider “YG293-MaL4 ({CH2CO}-[dY]TFRDVWIFYGSLLSRC; thioether N-17 (inferred))”, for which, in assay [1], the “Peak intensity, The number of prenyl groups added 0” value turned out to be 1 and the “Peak intensity, The number of prenyl groups added 1” value came out at 5.

Values taken from US20220275534A1, “Peptide Library Production Method” (The University of Tokyo, priority 2018, published 2022).
